# Where a name gives a salt, the structure may show the parent alone. Read-outs that look alike come from different tables or passages of the source.
# What was measured:
# [1] = target: T1, human AT1 receptor (Homo sapiens, UniProt P30556); experiment: Binding assay using human AT1 receptor-expressing CHO-K1 cell membrane fraction ([125I]-angiotensin II); conditions: 22.5 pM [125I]-angiotensin II, 9 μg AT1 membrane, 1 hr room temperature; read-out: AT1 receptor binding inhibitory action (IC50 (nM))
# T1 construct: expressed in transfected cells; host or cells: CHO-K1
# T1 sequence (P30556 1-359): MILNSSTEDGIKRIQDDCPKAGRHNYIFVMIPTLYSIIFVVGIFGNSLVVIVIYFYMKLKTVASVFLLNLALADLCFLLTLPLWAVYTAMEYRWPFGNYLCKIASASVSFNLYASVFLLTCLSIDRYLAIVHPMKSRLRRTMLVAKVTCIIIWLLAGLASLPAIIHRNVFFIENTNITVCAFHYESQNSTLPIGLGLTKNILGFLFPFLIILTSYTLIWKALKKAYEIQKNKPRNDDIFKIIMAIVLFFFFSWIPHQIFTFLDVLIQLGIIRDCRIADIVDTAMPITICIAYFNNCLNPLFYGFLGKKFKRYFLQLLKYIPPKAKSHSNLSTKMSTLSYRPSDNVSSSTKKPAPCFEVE
# Procedure: The membrane fraction for human AT1 receptor binding assay was prepared as follows. CHO-K1 cell capable of stable expression of human AT1 receptor was cultured, recovered, suspended in homogenize buffer (10 mM NaHCO3 (pH 7.4), 5 mM EDTA, 1×Complete EDTA free) [manufactured by Roche, Switzerland], and homogenized. The homogenate was centrifuged at low-speed (900×g, 10 min, 4° C.), and the supernatant was recovered and ultracentrifuged (90,000×g, 1 hr, 4° C.). The supernatant was discarded, and the pellets were resuspended in resuspension buffer (50 mM Tris (pH 7.4), 1 mM EDTA, 1×Complete EDTA free).
# The binding assay was performed in the presence of 22.5 pM [^125I]-angiotensin II [manufactured by PerkinElmer, USA], 9 μg of AT1 membrane and test compound in 100 μL (total reaction volume) of reaction buffer (50 mM Tris (pH 7.4), 10 mM MgCl2 supplemented or not supplemented with 0.3 mg/mL fatty acid-free bovine serum albumin [manufactured by Wako Pure Chemical Industries, Ltd., Japan]). The reaction mixture was incubated in 96 well polypropylene plate for 1 hr at room temperature, and the reaction was quenched by rapid filtration (96 well cell harvester) through a GF/C filter treated with wash buffer (50 mM Tris (pH 7.4)). Subsequently, the filter was washed 5 times with 0.3 mL of ice-cooled wash buffer. The filter was air-dried, and [^125I]-angiotensin II binding radioactivity was assayed with Top Count scintillation counter. Total binding was measured in the presence of 1% DMSO and nonspecific binding was measured in the presence of 1 μM CV-11974. The binding data was analyzed by GraphPad Prism program and the IC50 value (compound concentration showing 50% of the maximum value of inhibition percent) of the test compound was calculated.
# [2] = target: T2, PPARγ (Homo sapiens, UniProt P37231); experiment: Evaluation of PPARγ activating action (luciferase reporter in PPARγ:RXRα:4ERPP/CHO-K1 cells); assay type: cell-based; conditions: CHO-K1, 24 h, read-out: PPARγ activating action (activation % (10^−6 M))
# T2 construct: expressed in transfected cells; host or cells: CHO-K1
# T2 sequence (P37231 1-477 isoform P37231-2): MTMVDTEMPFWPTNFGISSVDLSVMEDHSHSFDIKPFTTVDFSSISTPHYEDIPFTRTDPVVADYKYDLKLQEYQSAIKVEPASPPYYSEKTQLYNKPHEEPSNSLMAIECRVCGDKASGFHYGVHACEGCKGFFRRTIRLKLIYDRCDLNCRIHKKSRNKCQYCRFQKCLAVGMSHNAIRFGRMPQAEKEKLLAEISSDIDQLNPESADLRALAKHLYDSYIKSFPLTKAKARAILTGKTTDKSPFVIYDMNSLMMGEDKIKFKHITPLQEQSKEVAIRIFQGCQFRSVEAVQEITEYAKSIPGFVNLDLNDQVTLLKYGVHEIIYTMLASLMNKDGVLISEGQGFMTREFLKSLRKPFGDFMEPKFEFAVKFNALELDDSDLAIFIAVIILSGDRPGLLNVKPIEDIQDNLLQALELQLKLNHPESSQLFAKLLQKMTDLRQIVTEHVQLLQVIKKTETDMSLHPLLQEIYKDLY
# T2 sequence (P19793 1-462 partner): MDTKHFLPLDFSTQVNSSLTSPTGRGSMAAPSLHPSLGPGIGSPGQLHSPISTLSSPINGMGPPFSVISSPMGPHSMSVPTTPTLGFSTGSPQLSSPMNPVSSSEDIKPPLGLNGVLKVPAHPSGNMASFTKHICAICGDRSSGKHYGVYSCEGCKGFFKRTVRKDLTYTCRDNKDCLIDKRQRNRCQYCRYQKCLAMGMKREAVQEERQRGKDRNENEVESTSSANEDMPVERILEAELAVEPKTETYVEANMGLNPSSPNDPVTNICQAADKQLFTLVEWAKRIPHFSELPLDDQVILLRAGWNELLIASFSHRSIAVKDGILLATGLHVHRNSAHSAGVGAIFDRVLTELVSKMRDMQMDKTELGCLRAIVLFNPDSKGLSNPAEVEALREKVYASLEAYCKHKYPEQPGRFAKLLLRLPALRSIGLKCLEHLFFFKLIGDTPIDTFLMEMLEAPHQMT
# Procedure: PPARγ:RXRα:4ERPP/CHO-K1 cells obtained in the following Reference Example 5 were cultured in F12 medium [manufactured by INVITROGEN, USA] containing 10% fetal bovine serum [manufactured by MOREGATE, Australia], seeded in a 96-well half area white plate [manufactured by Corning Coster Corporation, USA] at the density of 5×10^3 cells/well and cultured in a CO2 gas incubator at 37° C. overnight.
# Then the medium was removed from the 96-well half area white plate, 45 μl of Ham's F12 medium containing 0.1% fatty acid-free bovine serum albumin (BSA) and 5 μl of test compound were added, and the cells were cultured in a CO2 gas incubator at 37° C. for 1 day. The medium was removed and 20 μl of PicaGene 7.5 [manufactured by TOYO INK MFG. CO., LTD.,.Japan] diluted 2-fold with HBSS (HANKS' BALANCED SALT SOLUTION) [manufactured by BIO WHITTAKER, USA] was added. After stirring, the luciferase activity was determined using 1420 ARVO Multilabel Counter [manufactured by PerkinElmer, USA].
# The percent (%) was calculated from the luciferase activity of each test compound when the luciferase activity of the control compound (compound X: 5-[3-(4-{[2-(2-furyl)-5-methyl-1,3-oxazol-4-yl]methoxy}-3-methoxyphenyl)propyl]-1,3-oxazolidine-2,4-dione) (1 μM) was 100% and that of the test compound non-administration group was 0%.
# A CHO-K1 cell cultured in a 150 cm^2 cell culture flask [manufactured by Corning Costar Corporation, USA] containing Ham's F12 medium [manufactured by INVITROGEN, USA] supplemented with 10% fetal bovine serum [manufactured by INVITROGEN, USA] was scraped by treating with 0.5 g/L trypsin-0.2 g/L EDTA (ethylenediaminetetraacetic acid) [manufactured by Life Technologies, Inc., USA], and then the cell was washed with PBS (Phosphate-buffered saline) [manufactured by INVITROGEN, USA], centrifuged (1000 rpm, 5 minutes) and suspended in PBS. Subsequently, DNA was introduced into the cell under the conditions shown below using GENE PULSER [manufactured by Bio-Rad Laboratories, USA].
# Namely, to a cuvette having a 0.4 cm gap were added 8×10^6 cells and 10 μg of plasmid pVgRXR2-hPPARγ obtained in Reference Example 4 and 10 μg of reporter plasmid pGL3-4ERPP-TK neo obtained in Reference Example 3, which was subjected to electroporation at the voltage of 0.25 kV under the capacitance of 960 μF. Subsequently, the cell was transferred into a F12 medium containing 10% fetal bovine serum and cultured for 24 hours, and then the cell was scraped again and centrifuged, and then suspended in Ham's F12 medium containing 10% fetal bovine serum supplemented with 500 μg/ml of Geneticin [manufactured by INVITROGEN, USA] and 250 μg/ml of Zeocin [manufactured by INVITROGEN, USA]. The obtained suspension was diluted to the density of 10^4 cells/ml and inoculated in a 96-well plate [manufactured by Corning Costar Corporation, USA], which was cultured in a CO2 gas incubator at 37° C., whereby obtaining a Geneticin- and Zeocin-resistant transformant.
# Subsequently, after the transformant cell line thus obtained was cultured in a 24-well plate [manufactured by Corning Costar Corporation, USA], a cell line in which the luciferase was expressed and induced, i.e., PPARγ:RXRα:4ERPP/CHO-K1 cell was selected by the addition of 10 μM pioglitazone hydrochloride.
# [3] = test compound 10^−6 M, luciferase activity relative to control compound X (1 μM) = 100%, non-administration group = 0%
IC50 [1] [nM],"activation at 1 µM [2, 3] [%]",Compound,activation at 1 µM [2] [%]
1.5,61.2,"CCCCc1nc(C)n(CC23CC4CC(CC(C4)C2)C3)c(=O)c1Cc1ccc(-c2ccccc2-c2noc(=O)[nH]2)cc1 [Example 42, 3-(1-adamantylmethyl)-6-butyl-2-methyl-5-{[2′-(5-oxo-4,5-dihydro-1,2,4-oxadiazol-3-yl)biphenyl-4-yl]methyl}pyrimidin-4(3H)-one]",–
1.3,27.2,"CCCc1nc(CC)n(-c2ccc(OC3(CO)CCC3)cc2)c(=O)c1Cc1ccc(-c2ccccc2-c2noc(=O)[nH]2)cc1 [Example 419, 2-ethyl-3-(4-{[1-(hydroxymethyl)cyclobutyl]oxy}phenyl)-5-{[2′-(5-oxo-4,5-dihydro-1,2,4-oxadiazol-3-yl)biphenyl-4-yl]methyl}-6-propylpyrimidin-4(3H)-one]",–
1.7,18.9,"CCCc1nc(CC)n(-c2ccc(OC3CCOC(C)(C)C3)cc2)c(=O)c1Cc1ccc(-c2ccccc2-c2noc(=O)[nH]2)cc1 (centres unmarked) [Example 413, 3-{4-[(2,2-dimethyltetrahydro-2H-pyran-4-yl)oxy]phenyl}-2-ethyl-5-{[2′-(5-oxo-4,5-dihydro-1,2,4-oxadiazol-3-yl)biphenyl-4-yl]methyl}-6-propylpyrimidin-4(3H)-one]",–
1.8,19.2,"CCCc1nc(C)n(-c2ccc(OC3CCC3)c(F)c2)c(=O)c1Cc1ccc(-c2ccccc2-c2noc(=O)[nH]2)cc1 [Example 318, 3-[4-(cyclobutyloxy)-3-fluorophenyl]-2-methyl-5-{[2′-(5-oxo-4,5-dihydro-1,2,4-oxadiazol-3-yl)biphenyl-4-yl]methyl}-6-propylpyrimidin-4(3H)-one]",–
1.5,30.3,"CCCc1nc(CC)n(-c2ccc(OC(C)(C)CO)cc2)c(=O)c1Cc1ccc(-c2ccccc2-c2noc(=O)[nH]2)cc1 [Example 377, 2-ethyl-3-[4-(2-hydroxy-1,1-dimethylethoxy)phenyl]-5-{[2′-(5-oxo-4,5-dihydro-1,2,4-oxadiazol-3-yl)biphenyl-4-yl]methyl}-6-propylpyrimidin-4(3H)-one]",–

# The next lines start with the compound.
Compound,IC50 [1] [nM],"activation at 1 µM [2, 3] [%]",activation at 1 µM [2] [%]
"CCCOc1ccc(-c2c(CC)nc(CCC)n(Cc3ccc(-c4ccccc4-c4noc(=O)[nH]4)cc3)c2=O)cc1 [Example 459, 6-ethyl-3-{[2′-(5-oxo-4,5-dihydro-1,2,4-oxadiazol-3-yl)biphenyl-4-yl]methyl}-5-(4-propoxyphenyl)-2-propylpyrimidin-4(3H)-one]",2.1,40,–
"CCCc1nc(CC)n(-c2ccc(OC(C)(C)C(C)O)cc2)c(=O)c1Cc1ccc(-c2ccccc2-c2noc(=O)[nH]2)cc1 (centres unmarked) [Example 444, 2-ethyl-3-[4-(2-hydroxy-1,1-dimethylpropoxy)phenyl]-5-{[2′-(5-oxo-4,5-dihydro-1,2,4-oxadiazol-3-yl)biphenyl-4-yl]methyl}-6-propylpyrimidin-4(3H)-one]",1.3,55.4,–
"CCCc1nc(CC)n(-c2ccc(OC)cc2)c(=O)c1Cc1ccc(-c2ccccc2-c2noc(O)n2)cc1 [Example 313, 2-ethyl-3-(4-methoxyphenyl)-5-{[2′-(5-oxo-4,5-dihydro-1,2,4-oxadiazol-3-yl)biphenyl-4-yl]methyl}-6-propylpyrimidin-4(3H)-one potassium salt]",1.5,–,31
"C#CCC(C)Oc1ccc(-n2c(C)nc(CCC)c(Cc3ccc(-c4ccccc4-c4noc(=O)[nH]4)cc3)c2=O)cc1 (centres unmarked) [Example 324, 2-methyl-3-{4-[(1-methylbut-3-yn-1-yl)oxy]phenyl}-5-{[2′-(5-oxo-4,5-dihydro-1,2,4-oxadiazol-3-yl)biphenyl-4-yl]methyl}-6-propylpyrimidin-4(3H)-one]",1.7,45.2,–
"CCCc1nc(C)c(-c2ccc(OC(C)(C)C)cc2)c(=O)n1Cc1ccc(-c2ccccc2-c2noc(O)n2)cc1F [Example 475, 5-(4-tert-butoxyphenyl)-3-{[3-fluoro-2′-(5-oxo-4,5-dihydro-1,2,4-oxadiazol-3-yl)biphenyl-4-yl]methyl}-6-methyl-2-propylpyrimidin-4(3H)-one]",2,28.7,–

# Source: patent publication US20100056526A1, “HETEROMONOCYCLIC COMPOUND AND USE THEREOF” (Takeda Pharmaceutical Company Limited, priority 2006, published 2010)
